Data taken from ChEMBL document CHEMBL4406882, “The plant-derived chalcone Xanthoangelol targets the membrane of Gram-positive bacteria” (Bioorg Med Chem, 2019).
Calls of active or inactive are those of the source.

Experiments:
[1] = Selectivity index, ratio of IC50 for human MRC5 cells to MIC90 for methicillin-resistant Staphylococcus aureus ATCC 700699; assay type: toxicity; conditions: read-out: Selectivity Index
[2] = system: Bacillus subtilis; test: Induction of LiaH.1 protein expression in Bacillus subtilis 168 at 2.3 uM incubated for 15 mins by 35S-methionine pulse labeling based 2D-PAGE analysis; assay type: functional, organism-based
[3] = system: Bacillus subtilis; test: Induction of YceH protein expression in Bacillus subtilis 168 at 2.3 uM incubated for 15 mins by 35S-methionine pulse labeling based 2D-PAGE analysis; assay type: functional, organism-based
[4] = system: Bacillus subtilis; test: Induction of SufD protein expression in Bacillus subtilis 168 at 2.3 uM incubated for 15 mins by 35S-methionine pulse labeling based 2D-PAGE analysis; assay type: functional, organism-based
[5] = system: Bacillus subtilis; test: Induction of YqiG protein expression in Bacillus subtilis 168 at 2.3 uM incubated for 15 mins by 35S-methionine pulse labeling based 2D-PAGE analysis; assay type: functional, organism-based
[6] = system: Enterococcus faecalis; test: Antibacterial activity against vancomycin-resistant Enterococcus faecalis ATCC 51299 by broth micro dilution method; assay type: functional
[7] = system: Bacillus subtilis; test: Induction of GroES protein expression in Bacillus subtilis 168 at 2.3 uM incubated for 15 mins by 35S-methionine pulse labeling based 2D-PAGE analysis; assay type: functional, organism-based
[8] = system: Bacillus subtilis; test: Induction of SerA protein expression in Bacillus subtilis 168 at 2.3 uM incubated for 15 mins by 35S-methionine pulse labeling based 2D-PAGE analysis; assay type: functional, organism-based
[9] = Selectivity index, ratio of IC50 for human CLS54 cells to MIC90 for methicillin-resistant Staphylococcus aureus ATCC 700699; assay type: toxicity; conditions: read-out: Selectivity Index
[10] = system: Bacillus subtilis; test: Antibacterial activity against Bacillus subtilis 168 by broth micro dilution method; assay type: functional
[11] = system: Bacillus subtilis; test: Induction of GroEL.3 protein expression in Bacillus subtilis 168 at 2.3 uM incubated for 15 mins by 35S-methionine pulse labeling based 2D-PAGE analysis; assay type: functional, organism-based
[12] = system: Bacillus subtilis; test: Induction of LiaH.2 protein expression in Bacillus subtilis 168 at 2.3 uM incubated for 15 mins by 35S-methionine pulse labeling based 2D-PAGE analysis; assay type: functional, organism-based
[13] = system: Bacillus subtilis; test: Induction of YwfI protein expression in Bacillus subtilis 168 at 2.3 uM incubated for 15 mins by 35S-methionine pulse labeling based 2D-PAGE analysis; assay type: functional, organism-based
[14] = Selectivity index, ratio of IC50 for human HEK293 cells to MIC90 for methicillin-resistant Staphylococcus aureus ATCC 700699; assay type: toxicity; conditions: read-out: Selectivity Index
[15] = system: Bacillus subtilis; test: Induction of PepF protein expression in Bacillus subtilis 168 at 2.3 uM incubated for 15 mins by 35S-methionine pulse labeling based 2D-PAGE analysis; assay type: functional, organism-based
[16] = Cytotoxicity against human CLS54 cells assessed as reduction in cell viability incubated for 48 hrs by resazurin reagent based assay
[17] = system: Staphylococcus aureus; test: Induction of membrane integrity impairment in methicillin resistant Staphylococcus aureus Mu50 harboring GFP reporter plasmid assessed as increase in release of GFP at 1 to 16 times MIC incubated for 3 to 6 hrs by […]; assay type: functional, organism-based
[18] = system: Erythrocyte; test: Hemolytic activity against human erythrocytes at =>100 uM measured up to 24 hrs; assay type: ADME, cell-based
[19] = system: Bacillus subtilis; test: Induction of PdhA protein expression in Bacillus subtilis 168 at 2.3 uM incubated for 15 mins by 35S-methionine pulse labeling based 2D-PAGE analysis; assay type: functional, organism-based
[20] = system: Bacillus subtilis; test: Induction of HisG protein expression in Bacillus subtilis 168 at 2.3 uM incubated for 15 mins by 35S-methionine pulse labeling based 2D-PAGE analysis; assay type: functional, organism-based
[21] = system: Bacillus subtilis; test: Induction of ClpC protein expression in Bacillus subtilis 168 at 2.3 uM incubated for 15 mins by 35S-methionine pulse labeling based 2D-PAGE analysis; assay type: functional, organism-based
[22] = system: Bacillus subtilis; test: Induction of BdhA protein expression in Bacillus subtilis 168 at 2.3 uM incubated for 15 mins by 35S-methionine pulse labeling based 2D-PAGE analysis; assay type: functional, organism-based
[23] = system: Bacillus subtilis; test: Induction of CysK protein expression in Bacillus subtilis 168 at 2.3 uM incubated for 15 mins by 35S-methionine pulse labeling based 2D-PAGE analysis; assay type: functional, organism-based
[24] = system: Staphylococcus aureus; test: Antibacterial activity against mid-exponential growth phase of methicillin-resistant Staphylococcus aureus ATCC 700699 assessed as increase in cell lysis at 12.5 to 25 uM; assay type: functional, organism-based
[25] = system: Acinetobacter baumannii; test: Antibacterial activity against Acinetobacter baumannii ATCC BAA-747 by broth micro dilution method; assay type: functional
[26] = system: Bacillus subtilis; test: Induction of Hag protein expression in Bacillus subtilis 168 at 2.3 uM incubated for 15 mins by 35S-methionine pulse labeling based 2D-PAGE analysis; assay type: functional, organism-based
[27] = system: Enterococcus faecalis; test: Antibacterial activity against vancomycin-resistant Enterococcus faecalis ATCC 700221 by broth micro dilution method; assay type: functional
[28] = system: Staphylococcus aureus; test: Induction of membrane integrity impairment in methicillin-resistant Staphylococcus aureus ATCC 700699 at 12.5 to 25 uM measured for 3 hrs by PI staining based fluorescence assay; assay type: functional, organism-based
[29] = system: Bacillus subtilis; test: Induction of FabG protein expression in Bacillus subtilis 168 at 2.3 uM incubated for 15 mins by 35S-methionine pulse labeling based 2D-PAGE analysis; assay type: functional, organism-based
[30] = system: Enterococcus faecalis; test: Antibacterial activity against Enterococcus faecalis ATCC 29212 by broth micro dilution method; assay type: functional
[31] = system: HepG2; test: (§1) Cytotoxicity against human HepG2 cells assessed as reduction in cell viability incubated for 48 hrs by resazurin reagent based assay; conditions: Homo sapiens, HepG2, 48 h
[32] = as §1; conditions: human, HepG2 cells
[33] = system: Bacillus subtilis; test: Induction of YfmJ protein expression in Bacillus subtilis 168 at 2.3 uM incubated for 15 mins by 35S-methionine pulse labeling based 2D-PAGE analysis; assay type: functional, organism-based
[34] = system: Enterococcus faecalis; test: Antibacterial activity against Enterococcus faecalis ATCC 35667 by broth micro dilution method; assay type: functional
[35] = system: Acinetobacter baumannii; test: Antibacterial activity against multidrug-resistant Acinetobacter baumannii ATCC BAA-1605 by broth micro dilution method; assay type: functional
[36] = system: Staphylococcus aureus; test: Induction of membrane integrity impairment in methicillin resistant Staphylococcus aureus Mu50 assessed as increase in release of ATP at 1 to 16 times MIC incubated for 1 hr by BacTiter-Glo Assay; assay type: functional, organism-based
[37] = system: Staphylococcus aureus; test: Antibacterial activity against methicillin-resistant Staphylococcus aureus ATCC 700699 assessed as delay in growth at 1.56 uM measured for 6 hrs; assay type: functional, organism-based
[38] = system: Bacillus subtilis; test: Induction of YuaE protein expression in Bacillus subtilis 168 at 2.3 uM incubated for 15 mins by 35S-methionine pulse labeling based 2D-PAGE analysis; assay type: functional, organism-based
[39] = system: Bacillus subtilis; test: Induction of PspA protein expression in Bacillus subtilis 168 at 2.3 uM incubated for 15 mins by 35S-methionine pulse labeling based 2D-PAGE analysis; assay type: functional, organism-based
[40] = system: Bacillus subtilis; test: Induction of YqjE protein expression in Bacillus subtilis 168 at 2.3 uM incubated for 15 mins by 35S-methionine pulse labeling based 2D-PAGE analysis; assay type: functional, organism-based
[41] = system: Bacillus subtilis; test: Induction of Hom protein expression in Bacillus subtilis 168 at 2.3 uM incubated for 15 mins by 35S-methionine pulse labeling based 2D-PAGE analysis; assay type: functional, organism-based

CC(C)=CCC/C(C)=C/Cc1c(O)ccc(C(=O)/C=C/c2ccc(O)cc2)c1O [XANTHOANGELOL]
16.3: selectivity ratio [1]
3.12 µM: MIC [10] | MIC [27]
13.7 µM: IC50 [31]
58.8 µM: IC50 ([16]; Homo sapiens, 48 h)
> 100 µM: MIC [25] | MIC [35]
active: Activity [2] | Activity [3] | Activity [4] | Activity [5] | Activity [7] | Activity [8] | Activity [11] | Activity [12] | Activity [13] | Activity [15] | Activity [17] | Activity [19] | Activity [20] | Activity [21] | Activity [22] | Activity [23] | Activity [24] | Activity [26] | Activity [28] | Activity [29] | Activity [33] | Activity [36] | Activity [37] | Activity [38] | Activity [39] | Activity [40] | Activity [41]
37.4 µM: IC90 at 48 h [32]
16.2: selectivity ratio [14]
6.25 µM: MIC [6]
12.5 µM: MIC [30] | MIC [34]
44.2: selectivity ratio [9]
Toxic: Activity [18]
85.8 µM: IC90 at 48 h ([16]; human, CLS54 cells)
